Test results as given in publication PMC4929166, “Pharmacological evaluation of synthetic cannabinoids identified as constituents of spice” (Forensic Toxicology, 2016).
Read-outs that look alike come from different tables or passages of the source.

How the values were obtained:
CB2 receptor [1] = biological target: T1, CB2 receptor (Homo sapiens, UniProt P34972); test: cAMP accumulation assay in CHO cells expressing CB2; assay type: cell-based; design: expressed in transfected cells; host or cells: CHO cells; conditions: cAMP accumulation, forskolin 10 µM, normalized to CP55,940; for efficacy at CB2 receptor (in words): test concentration 1 µM or 10 µM
T1 sequence (P34972 whole entry): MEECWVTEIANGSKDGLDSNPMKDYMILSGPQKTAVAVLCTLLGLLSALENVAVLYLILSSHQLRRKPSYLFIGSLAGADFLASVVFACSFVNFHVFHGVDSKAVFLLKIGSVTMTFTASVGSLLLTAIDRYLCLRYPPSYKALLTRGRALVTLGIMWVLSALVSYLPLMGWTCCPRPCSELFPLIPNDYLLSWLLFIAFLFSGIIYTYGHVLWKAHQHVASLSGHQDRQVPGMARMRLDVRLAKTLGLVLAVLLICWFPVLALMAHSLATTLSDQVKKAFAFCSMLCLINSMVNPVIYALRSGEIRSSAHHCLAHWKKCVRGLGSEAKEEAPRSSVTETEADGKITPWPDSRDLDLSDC

CB1 receptor [2] = biological target: T2, CB1 receptor (Homo sapiens, UniProt P21554); test: biochemical; assay type: binding; design: expressed in transfected cells; host or cells: CHO cells (membrane preparation); conditions: for CB1 selectivity Ki CB2/KiCB1: Table S1, selectivity index from Ki values; for Ki: versus 0.1 nM [3H]CP55,940, CHO cell membranes, mean ± SEM of three to five experiments, read-out: Ki ± SEM Human CB1
T2 sequence (P21554 whole entry): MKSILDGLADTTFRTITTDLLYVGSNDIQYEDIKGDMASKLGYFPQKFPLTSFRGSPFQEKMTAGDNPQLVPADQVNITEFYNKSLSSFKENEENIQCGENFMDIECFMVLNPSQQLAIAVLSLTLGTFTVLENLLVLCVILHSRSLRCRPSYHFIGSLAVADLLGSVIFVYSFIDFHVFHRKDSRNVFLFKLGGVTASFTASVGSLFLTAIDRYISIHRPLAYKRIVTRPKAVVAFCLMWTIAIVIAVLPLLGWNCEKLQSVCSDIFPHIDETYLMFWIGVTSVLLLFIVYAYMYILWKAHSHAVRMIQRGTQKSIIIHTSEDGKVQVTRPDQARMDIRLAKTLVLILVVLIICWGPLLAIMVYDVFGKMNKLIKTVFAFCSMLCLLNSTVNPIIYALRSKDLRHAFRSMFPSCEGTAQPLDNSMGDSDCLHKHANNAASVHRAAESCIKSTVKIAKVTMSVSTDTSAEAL

CB2 receptor [3] = biological target: T1, CB2 receptor; test: biochemical; assay type: binding; design: expressed in transfected cells; host or cells: CHO cells (membrane preparation); conditions: for CB2 selectivity Ki CB1/KiCB2: Table S1, selectivity index from Ki values; for Ki: versus 0.1 nM [3H]CP55,940, CHO cell membranes, mean ± SEM of three to five experiments, read-out: Ki ± SEM Human CB2
human GPR55 = biological target: T3, human GPR55 (Homo sapiens, UniProt Q9Y2T6); test: β-Arrestin recruitment assay (PathHunter) at GPR55; assay type: cell-based; conditions: for IC50: antagonist mode; for Human GPR55 % activation: percent in brackets beside EC50 >10 µM; for Human GPR55 % inhibition: percent in brackets beside IC50
T3 construct: β-galactosidase enzyme fragment (PathHunter complementation tag)
T3 sequence (Q9Y2T6 whole entry, the tested form may be a part): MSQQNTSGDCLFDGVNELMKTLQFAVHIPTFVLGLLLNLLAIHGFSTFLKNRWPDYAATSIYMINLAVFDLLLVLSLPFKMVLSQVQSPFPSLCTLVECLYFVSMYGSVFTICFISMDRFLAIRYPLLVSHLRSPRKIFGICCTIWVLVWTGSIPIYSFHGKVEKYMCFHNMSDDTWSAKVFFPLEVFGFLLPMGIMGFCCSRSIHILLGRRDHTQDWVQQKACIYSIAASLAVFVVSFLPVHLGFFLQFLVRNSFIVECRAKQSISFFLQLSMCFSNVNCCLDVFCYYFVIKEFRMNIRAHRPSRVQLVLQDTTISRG
Description: (§1) Recruitment of β-arrestin to the respective receptor was detected by using β-galactosidase enzyme fragment complementation technology (β-arrestin PathHunter™ assay, DiscoverX, Fremont, CA, USA) as previously described. Data were obtained from three independent experiments, performed in duplicates. Data were analyzed using Graph Pad Prism Version 4.02 (San Diego, CA, USA).

human GPR18 = biological target: T4, human GPR18 (Homo sapiens, UniProt Q14330); test: β-Arrestin recruitment assay (PathHunter) at GPR18; assay type: cell-based; conditions: for Human GPR18 % activation: percent in brackets beside EC50 >10 µM; for Human GPR18 % inhibition: percent in brackets beside IC50
T4 construct: β-galactosidase enzyme fragment (PathHunter complementation tag)
T4 sequence (Q14330 1-331): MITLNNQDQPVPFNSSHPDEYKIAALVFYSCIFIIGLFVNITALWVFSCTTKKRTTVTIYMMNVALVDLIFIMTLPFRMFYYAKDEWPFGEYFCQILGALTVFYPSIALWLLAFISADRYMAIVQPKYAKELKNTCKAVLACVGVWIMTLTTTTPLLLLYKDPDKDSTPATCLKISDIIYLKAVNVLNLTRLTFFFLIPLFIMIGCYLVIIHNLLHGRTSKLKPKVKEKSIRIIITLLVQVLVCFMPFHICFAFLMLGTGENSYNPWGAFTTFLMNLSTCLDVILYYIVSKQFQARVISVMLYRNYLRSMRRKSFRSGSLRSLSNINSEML
Description: as §1

CB1 receptor [4] = biological target: T2, CB1 receptor; test: cell-based; assay type: cell-based; design: expressed in transfected cells; host or cells: CHO cells; conditions: cAMP accumulation, forskolin 10 µM; test concentration 1 µM or 10 µM; normalized to CP55,940
Human CB1 = conditions: ref Banister et al. [28]; read-out: EC50 Human CB1 (literature, functional assay) (converted); cited from earlier work
Human CB2 = conditions: ref Banister et al. [28]; read-out: EC50 Human CB2 (literature, functional assay) (converted); cited from earlier work
[5] = Human GPR55 IC50, β-arrestin assay

Structure (SMILES) | CB1 selectivity Ki CB2/KiCB1 (CB1 receptor [2]) | Ki (CB1 receptor [2]) | CB2 selectivity Ki CB1/KiCB2 (CB2 receptor [3]) | Ki (CB2 receptor [3]) | EC50 (human GPR55) | IC50 (human GPR55; [5]) | Human GPR55 % activation (human GPR55; β-arrestin assay) | Human GPR55 % inhibition (human GPR55; β-arrestin assay) | EC50 (human GPR18) | IC50 (human GPR18) | Human GPR18 % activation (human GPR18; β-arrestin assay) | Human GPR18 % inhibition (human GPR18; β-arrestin assay) | efficacy at CB1 receptor (in words) (CB1 receptor [4]) | further results
CCCCCc1cc(O)c2c(c1)OC(C)(C)[C@@H]1CCC(C)=C[C@@H]21 [Compound 1, Δ^9-tetrahydrocannabinol, reference compound] |  |  |  |  |  |  |  |  |  |  |  |  |  | activation of CB2 receptor compared to full agonist CP55,940 (CB2 receptor [1]): 60–70%
O=C(Nc1ccc2ccccc2c1)c1cn(CCCCCF)c2ccccc12 [Compound 7, 5F-NNEI-2-naphthyl-isomer] | 1.0 | 235 ± 15 nM | 1.0 | 226 ± 24 nM | > 10000 nM | > 10000 nM | 19% | 20% | > 10000 nM | > 10000 nM | 9% | 5% | lower efficacy than Δ^9-THC | fold decrease of affinity when naphthyl is linked in 2-position (CB1 receptor [2]; CB1, compared with 5F-NNEI (5)): about 100 fold; inhibition at 30 µM (CB2 receptor [3]; at 30 µM, read-out: Maximal inhibition of radioligand binding, human CB2): 80%; efficacy at CB2 receptor (in words) (CB2 receptor [1]): lower efficacy than Δ^9-THC
CCCCCn1nc(C(=O)Nc2cccc3ccccc23)c2ccccc21 [Compound 8, MN-18] | 0.9 | 3.86 ± 0.9 nM | 1.1 | 3.47 ± 0.89 nM | > 10000 nM | > 10000 nM | 27% | 35% | > 10000 nM | > 10000 nM | 2% | 37% | lower efficacy than Δ^9-THC | efficacy at CB2 receptor (in words) (CB2 receptor [1]): lower efficacy than Δ^9-THC
O=C(NC12CC3CC(CC(C3)C1)C2)c1nn(CCCCCF)c2ccccc12 [Compound 17, 5F-APINACA (5F-AKB48)] |  | 1.94 ± 0.55 nM | 7.3 | 0.266 ± 0.041 nM |  |  |  |  |  |  |  |  | activated CB1 receptor more efficaciously than CB2 | 
O=C(Oc1cccc2ccccc12)c1cn(CCCCCF)c2ccccc12 [Compound 19, NM-2201] | 2.2 | 0.332 ± 0.107 nM |  | 0.732 ± 0.174 nM | > 10000 nM | > 10000 nM | 17% | 23% | > 10000 nM | > 10000 nM | −8% | 32% | higher efficacy than the full agonist CP55,940 | 
O=C(Oc1cccc2cccnc12)c1cn(CC2CCCCC2)c2ccccc12 [Compound 27, BB-22] | 1.6 | 0.217 ± 0.056 nM |  | 0.338 ± 0.045 nM | > 10000 nM | > 10000 nM | 9% | 34% | > 10000 nM | > 10000 nM | 2% | 18% | higher efficacy than the full agonist CP55,940 | 
CCc1ccc(C(=O)c2cn(CCCCCF)c3ccccc23)c2ccccc12 [Compound 31, EAM-2201] | 1.0 | 0.38 ± 0.111 nM | 1.0 | 0.371 ± 0.052 nM | > 10000 nM | 1860 ± 160 nM | −24% |  | > 10000 nM | > 10000 nM | 14% | 4% | higher efficacy than the full agonist CP55,940 | 
CC1(C)C(C(=O)c2cn(CCCCCF)c3ccccc23)C1(C)C [Compound 38, XLR-11] |  | 29.4 ± 11 nM | 48.4 | 0.608 ± 0.151 nM |  |  |  |  |  |  |  |  |  | EC50 (Human CB1): 98 nM; EC50 (Human CB2): 83 nM
CCCC(F)Cn1cc(C(=O)C2C(C)(C)C2(C)C)c2ccccc21 (stereo not drawn) [Compound 39, XLR-11-2-fluoropentyl-isomer] |  | 59.5 ± 16.9 nM | 32.5 | 1.83 ± 0.47 nM | > 10000 nM | 5690 ± 1950 nM | −8% |  | > 10000 nM | > 10000 nM | 24% | 29% |  | 
CC1(C)C(C(=O)c2nn(CCCCCF)c3ccccc23)C1(C)C [Compound 40, FAB-144] |  | 17.5 ± 1.1 nM | 38.9 | 0.45 ± 0.111 nM | > 10000 nM | ~10000 nM | 5% | 77% | > 10000 nM | ~10000 nM | 2% | 57% |  | 
CC1(C)C(C(=O)c2cn(Cc3ccc(F)cc3)c3ccccc23)C1(C)C [Compound 42, FUB-144] |  | 14 ± 2.7 nM | 16.5 | 0.846 ± 0.209 nM | > 10000 nM | ~10000 nM | −3% | 62% | > 10000 nM | ~10000 nM | −12% | 74% |  | 
CN1CCCCC(Cn2cc(C(=O)C3C(C)(C)C3(C)C)c3ccccc32)C1 (stereo not drawn) [Compound 44, AB005-azepane-isomer] |  | > 10000 nM | 47.2 | 212 ± 55 nM |  |  | 21% | 18% |  |  | 11% | −6% | did not activate | affinity for the CB1 receptor (in words) (CB1 receptor [2]; at concentrations up to 10 µM): no affinity; inhibition of radioligand binding at human CB1 (percent in brackets) (CB1 receptor [2]; printed in brackets beside Ki ~/>10,000 nM, concentration not given): 13%; EC50 (human GPR55; read-out: Human GPR55 EC50, β-arrestin assay, agonist mode): > 10000 nM; IC50 (human GPR55; read-out: Human GPR55 IC50, β-arrestin assay): > 10000 nM; EC50 (human GPR18; read-out: Human GPR18 EC50, β-arrestin assay, agonist mode): > 10000 nM; IC50 (human GPR18; read-out: Human GPR18 IC50, β-arrestin assay, antagonist mode): > 10000 nM; efficacy at CB2 receptor (in words) (CB2 receptor [1]): did not activate
Cc1c(C(=O)C2C(C)(C)C2(C)C)c2ccccc2n1CCCCCF [Compound 47, M-144] |  | 19.4 ± 7.8 nM | 4.2 | 4.59 ± 1.48 nM | > 10000 nM | ~10000 nM | −5% | 86% | > 10000 nM | ~10000 nM | −7% | 67% |  | 
